# Laboratory results reported in US12589158B2 (priority 2022, dated 2026).
# Read-outs that look alike come from different tables or passages of the source.
# How the values were obtained:
# [1] = Pharmacokinetics following single administration in SD rat; design: species or system SD rats; details: male, SD, in vivo, sc, 50 nmol/kg
# Experimental: The compound is administrated to male SD rats (230-268 g, n=3) at a dose of 50.0 nmol/kg (s.c.) or 25.0 nmol/kg (i.v.). […] 30.0 μL of thawed plasma sample is taken. 150 μL of acetonitrile solution (containing 5 ng mL^−1 Verapamil, 50 ng·mL^−1 Glibenclamide, 200 ng·mL^−1 Tolbutamide and 200 ng·mL^−1 Diclofenac) are added to precipitate protein. The mixture is vortexed for 5 minutes, and centrifuged at 3700 rpm for 8 minutes. 70.0 μL of the supernatant is taken, into which 70.0 μL of 0.5% aqueous formic acid solution is added. The mixture is vortexed for 5 minutes. 15 μL of the mixture solution is sampled and injected into the LC-MS/MS to determine the drug concentration in plasma. 20.0 μL of thawed plasma sample is taken. 60 μL of acetonitrile solution (containing 5 ng mL^−1 Verapamil, 50 ng·mL^−1 Glibenclamide, 200 ng·mL^−1 Tolbutamide and 200 ng·mL^−1 Diclofenac) are added to precipitate protein. […] The mixture is vortexed for 10 minutes. 10.0 μL of the mixture solution is sampled and injected into the LC-MS/MS to determine the drug concentration in plasma. 30.0 μL of thawed plasma sample is taken. 150 μL of acetonitrile solution (containing 5 ng mL^−1 Verapamil, 50 ng mL^−1 Glibenclamide, 200 ng·mL^−1 Tolbutamide and 200 ng·mL^−1 Diclofenac) are added to precipitate protein. The mixture is vortexed for 5 minutes, and centrifuged at 3700 rpm for 8 minutes. 70.0 μL of the supernatant is taken, into which 70.0 μL of 0.5% aqueous formic acid solution is added. The mixture is vortexed for 5 minutes. 10.0 μL of the mixture solution is sampled and injected into the LC-MS/MS to determine the drug concentration in plasma.
# [2] = Pharmacokinetics in C57 mice; details: C57, mouse, in vivo
# Experimental: After subcutaneous or intravenous administration to C57 mice, plasma is collected and the drug concentration in plasma is determined to illustrate the in vivo pharmacokinetic properties of the compound according to the present invention. […] 20.0 μL of thawed plasma sample is taken. 20 μL of 50% aqueous methanol solution (containing 100 ng mL^−1 internal standard) and 60 μL of acetonitrile are added sequentially to precipitate protein. The mixture is vortexed for 5 minutes, and centrifuged at 3700 rpm for 8 minutes. 50.0 μL of the supernatant is taken, into which 50.0 μL of 0.5% aqueous formic acid solution is added. The mixture is vortexed for 5 minutes. 50 μL of the mixture solution is sampled and injected into the LC-MS/MS to determine the drug concentration in plasma.
# [3] = Pharmacokinetics in cynomolgus monkeys; details: cynomolgus monkey, in vivo
# Experimental: After subcutaneous or intravenous administration to cynomolgus monkeys, plasma is collected and the drug concentration in plasma is determined to illustrate the in vivo pharmacokinetic properties of the compound according to the present invention. The compound is dissolved in 1.4% PG in 8 mM Na2HPO4 Buffer (pH 7.39), and filtered through a filter membrane (PTFE, 0.45 μm) to obtain 25 and 12.5 nmol/mL solution of the compound respectively. The obtained solutions are administered to cynomolgus monkeys (4-8 kg) at a dose of 25 nmol/kg subcutaneously (s.c.) or 12.5 nmol/kg intravenously (i.v.). […] The blood samples are centrifuged at 2200 g for 10 minutes to obtain a plasma, which is stored at −90° C. to −60° C. for further analysis and assay.
# 70.0 μL of thawed plasma sample is taken. 70 μL of acetonitrile (containing 1 ng/ml of the internal standard) is added to precipitate protein. The mixture is vortexed for 1 minute, and centrifuged at 14000 rpm for 10 minutes. 60.0 μL of the supernatant is taken, into which 60.0 μL of 0.5% aqueous formic acid solution is added. The mixture is vortexed for 5 minutes. 10 μL of the mixture solution is sampled and injected into the LC-MS/MS to determine the drug concentration in plasma.
# Based on the drug concentration in plasma of the compounds in the cynomolgus monkeys, the pharmacokinetic parameters are calculated by applying the software Winnolin 8.2 in a non-compartmental model, and the results are shown in Table 9 and Table 10 below.
# [4] = format: in vivo; details: rat, in vivo, male SD rats
# Experimental: (§1) 77 SD male rats (SPF grade) are selected and randomly divided into 10 groups based on body weight. Group 1 is the vehicle control group, including 5 animals. […] Group 5 to Group 7 are the groups administrated with the test substance 1; and Group 8 to Group 10 are the groups administrated with the test substance 2, each group including 8 animals, wherein 5 animals for primary test, and 3 animals for toxicokinetics test, and the administration dose is 1, 3 and 10 mg/kg respectively. Each of the above groups is continuously administered twice a week for 2 weeks (administrating at Day 1, Day 5, Day 8, Day 12 and Day 15).
# (§2) During the experiment, the cage condition monitoring, detailed clinical observations, determination of the food consumption, determination of body weight, measurement of the blood biochemical and hematology indicator, investigation of the gross anatomy, weighing of the organ, studying on toxicokinetic are performed on all the groups of the animals.
# (§3) Original data during each time period is tabulated. The average values and standard deviations and/or group change are calculated for each assay endpoint based on the group and sex. For each endpoint, the administrated group will be compared with the control group in the following aspect. A logarithmic conversion is performed to the endpoint data as desired prior to the start of the specific analyses.
# SD male rats = format: in vivo
# Experimental: as §1, §2, §3
# [5] = in vivo
compound,measurement,setting,value
CC[C@H](C)[C@H](NC(=O)[C@H](CC(C)C)NC(=O)[C@H](Cc1c[nH]c2ccccc12)NC(=O)[C@H](CCC(N)=O)NC(=O)[C@@H](NC(=O)[C@H](Cc1ccccc1)NC(=O)[C@H](C)NC(=O)[C@H](CCCCNC(=O)COCCOCCNC(=O)COCCOCCNC(=O)CC[C@H](NC(=O)CCCCCCCCCCCCCCCCCCC(=O)O)C(=O)O)NC(=O)[C@H](CCC(N)=O)NC(=O)[C@H](C)NC(=O)[C@@H](NC(=O)[C@H](CCCCN)NC(=O)[C@H](CC(=O)O)NC(=O)[C@H](CC(C)C)NC(=O)C(C)(C)NC(=O)[C@@H](NC(=O)[C@H](CO)NC(=O)[C@H](Cc1ccc(O)cc1)NC(=O)[C@H](CC(=O)O)NC(=O)[C@H](CO)NC(=O)[C@@H](NC(=O)[C@H](Cc1ccccc1)NC(=O)[C@@H](NC(=O)CNC(=O)[C@H](CCC(=O)O)NC(=O)C(C)(C)NC(=O)[C@@H](N)Cc1ccc(O)cc1)[C@@H](C)O)[C@@H](C)O)[C@@H](C)CC)[C@@H](C)CC)C(C)C)C(=O)N[C@@H](C)C(=O)NCC(=O)NCC(=O)N1CCC[C@H]1C(=O)N[C@@H](CO)C(=O)N[C@@H](CO)C(=O)NCC(=O)N[C@@H](C)C(=O)N1CCC[C@H]1C(=O)N1CCC[C@H]1C(=O)N1CCC[C@H]1C(=O)N[C@@H](CO)C(N)=O [Tirzepatide],AUC(0-inf),[1],3.67 ± 1.19 µM·h
same,AUC(0-t),[1],3.61 ± 1.2 µM·h
same,Cmax,[1],128 ± 42.8 nM
same,MRT inf,[1],20.3 ± 0.755 h
same,MRT last,[1],19 ± 0.265 h
same,Tmax,[1],7.33 ± 1.15 h
same,half-life,[1],11.4 ± 1.79 h
same,AUC(0-inf),[2]; iv,12800 ng·h/mL
same,AUC(0-t),[2]; iv,12700 ng·h/mL
same,C0,[2]; iv,1900 ng/mL
same,MRT inf,[2]; iv,12 h
same,MRT last,[2]; iv,11.4 h
same,half-life,[2]; iv,10.5 h
same,AUC(0-inf),[2]; sc,19700 ng·h/mL
same,AUC(0-t),[2]; sc,19400 ng·h/mL
same,Cmax,[2]; sc,871 ng/mL
same,MRT inf,[2]; sc,15.3 h
same,MRT last,[2]; sc,14.5 h
same,Tmax,[2]; sc,6 h
same,half-life,[2]; sc,9.21 h
same,AUC(0-inf),"[3]; iv, 12.5 nmol/kg",58500 ± 11900 ng·h/mL
same,AUC(0-t),"[3]; iv, 12.5 nmol/kg",57600 ± 11800 ng·h/mL
same,C0,"[3]; iv, 12.5 nmol/kg",1170 ± 160 ng/mL
same,MRT inf,"[3]; iv, 12.5 nmol/kg",74.3 ± 8.76 h
same,MRT last,"[3]; iv, 12.5 nmol/kg",68.3 ± 8.61 h
same,half-life,"[3]; iv, 12.5 nmol/kg",59.5 ± 5.22 h
same,AUC(0-inf),"[3]; sc, 25 nmol/kg",150000 ± 39100 ng·h/mL
same,AUC(0-t),"[3]; sc, 25 nmol/kg",148000 ± 38200 ng·h/mL
same,Cmax,"[3]; sc, 25 nmol/kg",1300 ± 300 ng/mL
same,MRT inf,"[3]; sc, 25 nmol/kg",105 ± 7.58 h
same,MRT last,"[3]; sc, 25 nmol/kg",99.6 ± 6.26 h
same,Tmax,"[3]; sc, 25 nmol/kg",22.7 ± 10.1 h
same,half-life,"[3]; sc, 25 nmol/kg",62.5 ± 6.07 h
same,MTD,"[4]; MTD for 2 weeks, twice a week",2.08 µmol/kg
same,MTD,[4]; continuously administered twice a week for 2 weeks,> 10 mg/kg
same,Toxicokinetic: Cmax and AUC versus dose,"SD male rats; male SD rats, 1, 3, 10 mg/kg",increase nearly proportionally to the dose
same,Toxicokinetic: accumulation,"SD male rats; male SD rats, continuously administered twice a week for 2 weeks",no substantial accumulation
same,Safety Window (based on dosage),SD male rats; rat MTD for 2 weeks vs efficacy dose in db/db mice,416
same,Safety Window (based on exposure AUClast),"SD male rats; rat, in vivo",130
same,dose at which decrease of the body weight is observed after the first administration,"SD male rats; rat, in vivo",≥ 3 mg/kg
same,heart rate recovery time,[5],> 120 h
